Experimental findings from patent US9474790B2, “Stable, protracted GLP-1/glucagon receptor co-agonists for medical use” (Novo Nordisk A/S, priority 2013, dated 2016) are described below.

The nature of this data set: Thioflavin T (ThT) fibrillation assay for physical stability. The class given is physicochemical. The conditions noted are these: 250 μM in 10 mM HEPES buffer, pH 7.5, 37° C., shaking 960 rpm. The essentials:
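Fibrillation was followed by ThT (1 μM) fluorescence every 20 min, 444/485 nm, for 250 μM peptide in 10 mM HEPES pH 7.5 shaken at 960 rpm, 37° C. Lag time (t0−2τ) and apparent rate constant (1/τ) come from a sigmoidal fit. Recovery is % of initial concentration remaining soluble after centrifugation and filtration (RP-HPLC).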

Numbered stars: 1 amine (or outer) side, 2 acyl side, 3 side chain; on linkers, the order of the positions; unused ones are H or OH. Bridge positions count the residues as written; N and C are the ends. Square brackets hold non-standard residues; d marks the D form. Side chains are listed from the residue outwards. Peptide text beside a SMILES is read from it. I, II: the chains in the order shown. * marks the point of attachment. C18 diacid = O=C(O)CCCCCCCCCCCCCCCCC(=O)*; γGlu = O=C(O)[C@H](CCC(=O)[*:2])N[*:1]; Ac4c = NC1(C(=O)O)CCC1; AEEA = NCCOCCOCC(=O)O; Aib = CC(C)(N)C(=O)O

Consider `CC(C)C[C@H](NC(=O)[C@H](Cc1c[nH]c2ccccc12)NC(=O)[C@H](C)NC(=O)[C@@H](NC(=O)[C@H](Cc1ccccc1)NC(=O)[C@H](CCC(=O)O)NC(=O)[C@H](CCCNC(=N)N)NC(=O)[C@H](C)NC(=O)[C@H](CCCNC(=N)N)NC(=O)[C@H](CCCNC(=N)N)NC(=O)[C@H](CO)NC(=O)[C@H](CCC(=O)O)NC(=O)[C@H](CC(C)C)NC(=O)[C@H](Cc1ccc(O)cc1)NC(=O)[C@H](CCCCN)NC(=O)[C@H](CO)NC(=O)[C@H](CC(C)C)NC(=O)[C@H](CC(=O)O)NC(=O)[C@H](CO)NC(=O)[C@@H](NC(=O)[C@H](Cc1ccccc1)NC(=O)[C@@H](NC(=O)CNC(=O)[C@H](Cc1c[nH]cn1)NC(=O)C(C)(C)NC(=O)[C@@H](N)Cc1c[nH]cn1)[C@@H](C)O)[C@@H](C)O)C(C)C)C(=O)N[C@@H](CC(C)C)C(=O)N[C@@H](CCCCNC(=O)CC[C@H](NC(=O)COCCOCCNC(=O)COCCOCCNC(=O)CC[C@H](NC(=O)CC[C@H](NC(=O)CCCCCCCCCCCCCCCCC(=O)O)C(=O)O)C(=O)O)C(=O)O)C(=O)N[C@H](C(N)=O)[C@@H](C)O` [Example 31, N^ε28-[(4S)-4-carboxy-4-[[2-[2-[2-[[2-[2-[2-[[(4S)-4-carboxy-4-[[(4S)-4-carboxy-4-(17-carboxyheptadecanoylamino)butanoyl]amino]butanoyl]amino]ethoxy]ethoxy]acetyl]amino]ethoxy]ethoxy]acetyl]amino]butanoyl]-[Aib2,His3,Leu10,Glu15,Arg20,Glu21,Ala24,Leu27, Lys28]-Glucagon amide] (H-H[Aib]HGTFTSDLSKYLESRRAREFVAWLLK([γGlu-AEEA-AEEA-γGlu-γGlu-C18 diacid])T-NH2; N-terminus assumed), for which the THT assay Lag time (Ex. 76) turned out to be 45 h.

The compound `CC(C)C[C@H](NC(=O)[C@H](Cc1ccc(O)cc1)NC(=O)[C@H](CCCCN)NC(=O)[C@H](CO)NC(=O)[C@H](CC(C)C)NC(=O)[C@H](CC(=O)O)NC(=O)[C@H](CO)NC(=O)[C@@H](NC(=O)[C@H](Cc1ccccc1)NC(=O)[C@@H](NC(=O)CNC(=O)[C@H](Cc1c[nH]cn1)NC(=O)C(C)(C)NC(=O)[C@@H](N)Cc1c[nH]cn1)[C@@H](C)O)[C@@H](C)O)C(=O)N[C@@H](CCC(=O)O)C(=O)N[C@@H](CO)C(=O)N[C@@H](CCCNC(=N)N)C(=O)N[C@@H](CCCNC(=N)N)C(=O)N[C@@H](C)C(=O)N[C@@H](CCCNC(=N)N)C(=O)N[C@@H](CCC(=O)O)C(=O)N[C@@H](Cc1ccccc1)C(=O)N[C@H](C(=O)N[C@@H](CCC(N)=O)C(=O)N[C@@H](Cc1c[nH]c2ccccc12)C(=O)N[C@@H](CC(C)C)C(=O)N[C@@H](CC(C)C)C(=O)N[C@@H](CCCCNC(=O)CC[C@H](NC(=O)CC[C@H](NC(=O)COCCOCCNC(=O)COCCOCCNC(=O)CC[C@H](NC(=O)CCCCCCCCCCCCCCCCC(=O)O)C(=O)O)C(=O)O)C(=O)O)C(=O)N[C@H](C(N)=O)[C@@H](C)O)C(C)C` [Example 33, N^ε28-[(4S)-4-carboxy-4-[[(4S)-4-carboxy-4-[[2-[2-[2-[[2-[2-[2-[[(4S)-4-carboxy-4-(17-carboxyheptadecanoylamino)butanoyl]amino]ethoxy]ethoxy]acetyl]amino]ethoxy]ethoxy]acetyl]amino]butanoyl]amino]butanoyl]-[Aib2,His3,Leu10,Glu15,Arg20,Glu21,Leu27,Lys28]-Glucagon amide] (H-H[Aib]HGTFTSDLSKYLESRRAREFVQWLLK([γGlu-γGlu-AEEA-AEEA-γGlu-C18 diacid])T-NH2; N-terminus assumed) registered a THT assay Lag time (Ex. 76) of 45 h.

Take `CC(C)C[C@H](NC(=O)[C@H](Cc1ccc(O)cc1)NC(=O)[C@H](CCCCN)NC(=O)[C@H](CO)NC(=O)[C@H](CC(C)C)NC(=O)[C@H](CC(=O)O)NC(=O)[C@H](CO)NC(=O)[C@@H](NC(=O)[C@H](Cc1ccccc1)NC(=O)[C@@H](NC(=O)CNC(=O)[C@H](Cc1c[nH]cn1)NC(=O)C1(NC(=O)[C@@H](N)Cc2c[nH]cn2)CCC1)[C@@H](C)O)[C@@H](C)O)C(=O)N[C@@H](CCC(=O)O)C(=O)N[C@@H](CO)C(=O)N[C@@H](CCCNC(=N)N)C(=O)N[C@@H](CCCNC(=N)N)C(=O)N[C@@H](C)C(=O)N[C@@H](CCC(N)=O)C(=O)N[C@@H](CC(=O)O)C(=O)N[C@@H](Cc1ccccc1)C(=O)N[C@H](C(=O)N[C@@H](CCC(N)=O)C(=O)N[C@@H](Cc1c[nH]c2ccccc12)C(=O)N[C@@H](CC(C)C)C(=O)N[C@@H](CC(C)C)C(=O)N[C@@H](CCCCNC(=O)CNC(=O)[C@H](CO)NC(=O)[C@H](CCC(=O)O)NC(=O)CNC(=O)[C@H](CO)NC(=O)CC[C@H](NC(=O)CC[C@H](NC(=O)CCCCCCCCCCCCCCCCC(=O)O)C(=O)O)C(=O)O)C(=O)N[C@H](C(N)=O)[C@@H](C)O)C(C)C` [Example 35, N^ε28-[2-[[(2S)-2-[[(2S)-4-carboxy-2-[[2-[[(2S)-2-[[(4S)-4-carboxy-4-[[(4S)-4-carboxy-4-(17-carboxyheptadecanoylamino)butanoyl]amino]butanoyl]amino]-3-hydroxypropanoyl]amino]acetyl]amino]butanoyl]amino]-3-hydroxypropanoyl]amino]acetyl]-[Acb2,His3,Leu10,Glu15, Leu27,Lys28]-Glucagon amide] (I: H-H[Ac4c]HGTFTSDLSKYLESRRAQDFVQWLLKT-NH2 / II: {C18 diacid-γGlu-γGlu}-SGESG; amide I:28-II:C; N-terminus assumed): the THT assay Lag time (Ex. 76) came to 45 h.

Take `CC(C)C[C@H](NC(=O)[C@H](Cc1ccc(O)cc1)NC(=O)[C@H](CCCCN)NC(=O)[C@H](CO)NC(=O)[C@H](CC(C)C)NC(=O)[C@H](CC(=O)O)NC(=O)[C@H](CO)NC(=O)[C@@H](NC(=O)[C@H](Cc1ccccc1)NC(=O)[C@@H](NC(=O)CNC(=O)[C@H](Cc1c[nH]cn1)NC(=O)C(C)(C)NC(=O)[C@@H](N)Cc1c[nH]cn1)[C@@H](C)O)[C@@H](C)O)C(=O)N[C@@H](CCC(=O)O)C(=O)N[C@@H](CO)C(=O)N[C@@H](CCCNC(=N)N)C(=O)N[C@@H](CCCNC(=N)N)C(=O)N[C@@H](C)C(=O)N[C@@H](CCCNC(=N)N)C(=O)N[C@@H](CC(=O)O)C(=O)N[C@@H](Cc1ccccc1)C(=O)N[C@H](C(=O)N[C@@H](CCC(N)=O)C(=O)N[C@@H](Cc1c[nH]c2ccccc12)C(=O)N[C@@H](CC(C)C)C(=O)N[C@@H](CC(C)C)C(=O)N[C@@H](CCCCNC(=O)CNC(=O)[C@H](CO)NC(=O)[C@H](CCC(=O)O)NC(=O)CNC(=O)[C@H](CO)NC(=O)CC[C@H](NC(=O)CC[C@H](NC(=O)CCCCCCCCCCCCCCCCC(=O)O)C(=O)O)C(=O)O)C(=O)N[C@H](C(N)=O)[C@@H](C)O)C(C)C` [Example 37, N^ε28-[2-[[(2S)-2-[[(2S)-4-carboxy-2-[[2-[[(2S)-2-[[(4S)-4-carboxy-4-[[(4S)-4-carboxy-4-(17-carboxyheptadecanoylamino)butanoyl]amino]butanoyl]amino]-3-hydroxypropanoyl]amino]acetyl]amino]butanoyl]amino]-3-hydroxypropanoyl]amino]acetyl]-[Aib2,His3,Leu10,Glu15, Arg20,Leu27,Lys28]-Glucagon amide] (I: H-H[Aib]HGTFTSDLSKYLESRRARDFVQWLLKT-NH2 / II: {C18 diacid-γGlu-γGlu}-SGESG; amide I:28-II:C; N-terminus assumed): the THT assay Lag time (Ex. 76) came out at 45 h.

For `CC(C)C[C@H](NC(=O)[C@H](Cc1ccc(O)cc1)NC(=O)[C@H](CCCCN)NC(=O)[C@H](CO)NC(=O)[C@H](CC(C)C)NC(=O)[C@H](CC(=O)O)NC(=O)[C@H](CO)NC(=O)[C@@H](NC(=O)[C@H](Cc1ccccc1)NC(=O)[C@@H](NC(=O)CNC(=O)[C@H](CCC(N)=O)NC(=O)C(C)(C)NC(=O)[C@@H](N)Cc1c[nH]cn1)[C@@H](C)O)[C@@H](C)O)C(=O)N[C@@H](CCC(=O)O)C(=O)N[C@@H](CO)C(=O)N[C@@H](CCCCN)C(=O)N[C@@H](CCCNC(=N)N)C(=O)N[C@@H](C)C(=O)N[C@@H](CCCNC(=N)N)C(=O)N[C@@H](CCC(=O)O)C(=O)N[C@@H](Cc1ccccc1)C(=O)N[C@H](C(=O)N[C@@H](CCC(N)=O)C(=O)N[C@@H](Cc1c[nH]c2ccccc12)C(=O)N[C@@H](CC(C)C)C(=O)N[C@@H](CC(C)C)C(=O)N[C@@H](CCCCNC(=O)CC[C@H](NC(=O)CC[C@H](NC(=O)[C@H](CO)NC(=O)[C@H](CCC(=O)O)NC(=O)[C@H](CO)NC(=O)CC[C@H](NC(=O)CC[C@H](NC(=O)CCCCCCCCCCCCCCCCC(=O)O)C(=O)O)C(=O)O)C(=O)O)C(=O)O)C(=O)N[C@H](C(N)=O)[C@@H](C)O)C(C)C` [Example 52] (H-H[Aib]QGTFTSDLSKYLESKRAREFVQWLLK([γGlu-γGlu-Ser-Glu-Ser-γGlu-γGlu-C18 diacid])T-NH2; N-terminus assumed), the THT assay Lag time (Ex. 76) was determined as 45 h.
